Data on 1 compound can be found in US9493466B2, “Treatment of cancer with TOR kinase inhibitors” (Signal Pharmaceuticals, LLC, priority 2011, dated 2016).

In one experiment the test system is Hep3B. Nature of the experiment: Growth inhibition assay for HCC lines. It counts as cell-based. As to conditions: 96 hours, DMEM + 10% FBS. On the procedure:
(§1) Growth Inhibition Assay for HCC and NHL Lines. The seeding density for each cell line was optimized to ensure assay linearity in 384-well plates.
(§2) Compound 1 was dissolved in dimethyl sulfoxide (DMSO) to prepare a 10 mM stock solution. A serial titration was performed to produce a working concentration range of […] to 10 mM. Aliquots to produce final concentrations of 1.5 nM to 10 μM were spotted via an acoustic dispenser (EDC ATS-100) into an empty 384-well plate. Compound 1 was spotted in a 10-point serial dilution fashion (3-fold dilution) in duplicate within the plate. The DMSO concentration was kept constant for a final assay concentration of 0.1% DMSO. Plates were replicated for use with different cell lines and testing periods. After compound plate replication, all plates were sealed (Agilent ThermoLoc) and stored at −20° C. for up to 1 month. […] When ready for testing, plates were removed from the freezer, thawed, and unsealed just prior to the addition of the test cells. Prior to testing, cells were grown and expanded in culture flasks to provide sufficient amounts of starting material. Cells were then diluted to the appropriate densities and added directly to the compound-spotted 384-well plates. Cells were allowed to grow for 96 hours at 37° C./5% CO2. At the time when compound was added (t0), initial cell number was assessed via a viability assay (Cell Titer-Glo) by quantifying the level of luminescence generated by ATP present in viable cells. After 96 hours, cell viability of compound-treated cells was assessed via Cell Titer-Glo and luminescence measurement. Cell lines were assayed for growth inhibition by Compound 1 in at least 3 independent tests. A control cell line (the lung tumor cell line, A549) was included in each of the assays. The compound response against this control cell line was monitored closely to enable comparison of the data generated through the assay period. All data were normalized and presented as a percentage of the DMSO-treated cells. Results were then expressed as a GI50 value. The GI50 value corrects for the cell count at time zero. In addition, the IC50 value of Compound 1 for each cell line was calculated.

A further experiment relates to HepG2. Description: Growth inhibition assay for HCC lines. The following applies: HepG2, 96 hours, DMEM + 10% FBS. The format is cell-based. On the procedure: as §1, §2
The test system of a further experiment is HuH-7. Nature of the experiment: Growth inhibition assay for HCC lines. It counts as cell-based. The following applies: HuH-7, 96 hours, DMEM + 10% FBS. As to the method: as §1, §2
The subject of another experiment is SK-HEP-1. Nature of the experiment: Growth inhibition assay for HCC lines. The format is cell-based. The following applies: SK-HEP-1, 96 hours, DMEM + 10% FBS. As to the method: as §1, §2
The subject of the next experiment is SNU-423. Nature of the experiment: Growth inhibition assay for HCC lines. The format is cell-based. The following applies: SNU-423, 96 hours, RPMI 1640 + 10% FBS. As to the method: as §1, §2
A further experiment has as its system SNU-449. Description: Growth inhibition assay for HCC lines. The format is cell-based. The following applies: SNU-449, 96 hours, RPMI 1640 + 10% FBS. On the procedure:
as §1, §2

The test system of the next experiment is SNU-475. Description: Growth inhibition assay for HCC lines. The format is cell-based. The following applies: SNU-475, 96 hours, RPMI 1640 + 10% FBS. As to the method: as §1, §2
The test system of a further experiment is NSCLC. Nature of the experiment: Phase 1/2 study Part B: tumor response, NSCLC. The format is in vivo, human. The following applies: 17 evaluable patients. The source says:
In Part B, subjects may start Compound 1 at the MTD and/or a lower dose level based on safety, PK and PD data from Part A. Approximately 150 subjects will be treated and evaluated for safety and preliminary antitumor activity after every two cycles of therapy. Tumor types include non-small cell lung cancer (NSCLC), glioblastoma multiforme (GBM), hepatocellular carcinoma (HCC), gastrointestinal neuroendocrine tumor of non-pancreatic origin (NET), diffuse large B-cell lymphoma (DLBCL), multiple myeloma (MM), and hormone receptor positive breast cancer (HRPBC). Up to 20 subjects will be enrolled in each tumor type.
Subjects will be evaluated for efficacy every 2 cycles through cycle 6 and every 3 cycles thereafter. The primary efficacy variable is response. Tumor assessments, including imaging (CT, MRI and/or PET) of the chest and abdomen and other sites as appropriate, will be performed during Screening. Subjects with brain lesions will also have brain scans at Screening and during follow-up tumor assessments. After Screening, tumor assessments (for all tumors except multiple myeloma) will be performed on completion of Cycles 2, 4 and 6 (i.e., on Cycles 3, 5 and 7/Day 1±7 days) and then every 3 months thereafter (e.g., Cycle 10 and 13/Day 1±7 days). Tumor assessment (for multiple myeloma and only NHL/DLBCL with known or suspected marrow involvement) (bone marrow aspiration and biopsy, with PD biomarker analysis, cytogenetic analysis if abnormally present at Screening) will be performed on completion of Cycles 4, 8, 12 and 16 only (i.e., on Cycles 5, 9, 13 and 17/Day 1±7 days). Cytogenetics need not be repeated if normal at Screening. […] Subjects will be evaluated for tumor response on completion of Cycle 2, 4, 6, and so on. […]
For Part B, efficacy variables to be analyzed include tumor response at the end of treatment, the proportion of subject alive and progression-free, and duration of response. […]

In general, GI50 refers to the concentration at which growth is held to half of that of the control. Broadly, the IC50 is the concentration that inhibits the measured activity by half. For `CO[C@H]1CC[C@H](N2C(=O)CNc3ncc(-c4ccc(C(C)(C)O)nc4)nc32)CC1` [Compound 1, 7-(6-(2-hydroxypropan-2-yl)pyridin-3-yl)-1-((1r,4r)-4-methoxycyclohexyl)-3,4-dihydropyrazino-[2,3-b]pyrazin-2(1H)-one], the concentration for 50% growth inhibition (GI50) with Hep3B is 0.26 ± 0.07 µM; in the experiment with HepG2 it was 0.24 ± 0.06 µM; in the experiment on HuH-7, 0.07 ± 0.03 µM; in the experiment on SK-HEP-1 it was 0.27 ± 0.04 µM; in the experiment with SNU-423, 0.3 ± 0.05 µM; with SNU-449, 0.37 ± 0.07 µM. Besides, the GI50 with SNU-475 stood at 0.46 ± 0.09 µM. The IC50 came out at 0.34 ± 0.11 µM in the experiment with Hep3B; 0.32 ± 0.13 µM with HepG2; 0.1 ± 0.04 µM with HuH-7; 0.33 ± 0.07 µM with SK-HEP-1; 0.48 ± 0.06 µM in the experiment with SNU-423; 0.48 ± 0.11 µM in the experiment with SNU-449. Moreover, the IC50 in the experiment on SNU-475 was 0.69 ± 0.14 µM. For the same compound, the “patients meeting Partial Response (RECIST 1.1)” value with NSCLC came to 1 patient. Further, in the experiment with NSCLC, the “patients meeting at least Stable Disease (RECIST 1.1)” value is on record as 11 patients. The “best target lesions responses (reduction)” value with NSCLC (45 mg QD start) was “up to 35%”.
